According to publication PMC7748245, “Identification and Optimization of a Series of 8-Hydroxy Naphthyridines with Potent In Vitro Antileishmanial Activity: Initial SAR and Assessment of In Vivo Activity” (Journal of Medicinal Chemistry, 2020):

How the values were obtained:
[1] = system: L. donovani amastigotes; assay: Intramacrophage L. donovani assay (Ld InMac); assay type: cell-based, Leishmania donovani; conditions: for LdInMac pIC50: supplement sheet; for Ld InMac (pEC50): L. donovani amastigotes in THP-1 cells, 96 h compound exposure
Method: (§1) This assay was conducted as previously described,[8] except for compound exposure time, which was 96 h instead of 72 h.

[2] = system: THP-1 cells; assay: THP-1 host cell toxicity readout of the intramacrophage assay; assay type: cell-based, human; conditions: for THP-1 (pEC50): human THP-1 host cells; for THP1 pIC50: supplement sheet
Method: as §1

[3] = Mouse liver microsomal intrinsic clearance; assay type: in vitro ADME; conditions: for Cli (mouse liver microsomal intrinsic clearance): mouse liver microsomes; for Cli (mouse, ml/min/g): supplement sheet
Method: (§2) These assays were conducted as previously described.[23]

[4] = Kinetic aqueous solubility; assay type: physicochemical; conditions: kinetic; read-out: Aq Solubility (kinetic aqueous solubility)
Method: as §2

[5] = Chrom Log D pH7.4; assay type: physicochemical; conditions: for ChromLogDpH7.4: pH 7.4; for ChromLogD: supplement sheet
Method: This assay was conducted as previously described.[11]

Compound | LdInMac pIC50 [1] | THP-1 (pEC50) [2] | THP1 pIC50 [2] | Cli (mouse liver microsomal intrinsic clearance) [3] | Cli (mouse, ml/min/g) [3] | solubility kinetic [4] | ChromLogDpH7.4 [5] | ChromLogD [5] | Ld InMac (pEC50) [1]
5-(Dimethylamino)-7-(3-methyl-1H-1,2,4-triazol-5-yl)-1,6-naphthyridin-8-ol [Compound 9] | 4.8 | <4.3 | <4.3 | 14 mL/min/g | 14 mL/min/g | >250 µM | -0.6 | -0.6 | –
O=C(NCc1ccc(Cl)cc1)c1nc(NC2CCOCC2)c2cccnc2c1O [Compound 31, N-(4-Chlorobenzyl)-8-hydroxy-5-((tetrahydro-2H-pyran-4-yl)amino)-1,6-naphthyridine-7-carboxamide] | 5.3 | <4.3 | <4.3 | 2.2 mL/min/g | 2.2 mL/min/g | >250 µM | 5.3 | 5.3 | 5.3
Cc1n[nH]c(-c2nc(N3CCOCC3)c3cccnc3c2O)n1 [Compound 11, 7-(3-Methyl-1H-1,2,4-triazol-5-yl)-5-morpholino-1,6-naphthyridin-8-ol] | 5 | <4.3 | <4.3 | 3.1 mL/min/g | 3.1 mL/min/g | >250 µM | 1.8 | 1.8 | –
7-(3-Methyl-1H-1,2,4-triazol-5-yl)-5-(2-(trifluoromethyl)phenyl)-1,6-naphthyridin-8-ol [Compound 15] | 7 | <4.3 | <4.3 | 1.4 mL/min/g | 1.4 mL/min/g | >250 µM | 4.3 | 4.3 | 7.0
